# From US8828932B2, “Bifunctional molecules for inactivating HIV and blocking HIV entry” (New York Blood Center, Inc., priority 2010, dated 2014)
# What was measured:
# RU570 (G, R5) = assay type: cell-based, HIV-1
# Procedure: (§1) The inhibitory activity of the bifunctional molecule on infection by primary HIV-1 isolates, 92US657 (B, R5), 94UG103 (A, X4R5), 93MW959 (C, R5), RU570 (G, R5) and 92TH009 (E/A, R5) was determined (Jiang S et al. Antimicrob Agents Chemother 48:4349-4359, 2004). Briefly, peripheral blood mononuclear cells (PBMCs) were isolated from the blood of healthy donors using a standard density gradient (Histopaque-1077, Sigma) centrifugation. After incubation at 37° C. for 2 hr, the nonadherent cells were collected and resuspended at 5×10^5/ml in RPMI 1640 medium containing 10% FBS, 5 μg of phytohemagglutinin (PHA)/ml, and 100 U of IL-2/ml, followed by incubation at 37° C. for 3 days. The PHA-stimulated cells were infected with the corresponding primary HIV-1 isolates at a multiplicity of infection (MOI) of 0.01 in the absence or presence of antisera at a serial 2-fold dilution. The supernatants were collected 7 days post-infection and tested for p24 antigen by ELISA as described above. The IC50 was calculated using the […]™ software as described above.
# 92US657 (B, R5) = assay type: cell-based, HIV-1
# Procedure: as §1
# 94UG103 (A, X4R5) = assay type: cell-based, HIV-1
# Procedure: as §1
# 93MW959 (C, R5) = assay type: cell-based, HIV-1
# Procedure: as §1
# HIV-1 Bal (B, R5) [1] = experiment: Inactivation of cell-free virus, PEG 6000 precipitation, TZM-bl cells, luciferase; assay type: cell-based; details: FIG. 18, luciferase
# Procedure: (§2) Briefly, HIV-1 isolate (500 TCID50/ml) was added to 100 μl of the samples with different concentration and incubate on 4° C. for 1 hour. Then, PEG 6000 was added to the final concentration of 3% and centrifuge on a microfuge at 15,000 rpm for 30 min. The supernatants were removed, and the pellet was washed with PBS and resuspended to 100 μl. MT-2 or TZM-bl cells (1×10^5/ml) were added at 100 μl/well, and cultured at 37° C. for 3 days. p24 production in MT-2 or luciferase activity was determined according to kit manufacturer' instruction.
# HIV-1 IIIB (B, X4) [2] = experiment: Inactivation of cell-free virus, PEG 6000 precipitation, MT-2 cells, p24; assay type: cell-based; details: FIG. 17, MT-2 cells
# Procedure: as §2
# [3] = system: HIV-1 IIIB chronically infected H9 cells / MT-2 cells; assay type: cell-based
# Procedure: HIV-1-mediated cell-cell fusion was determined by a dye transfer assay (Lu H et al. J Virol Methods 107:155-161, 2003.) using Calcein AM-labeled HIV-1IIIB chronically infected H9 (H9/HIV-1 IIIB) cells as effector cells and MT-2 cells as target cells.
# HIV-1 Bal (B, R5) [4] = assay type: cell-based
# Procedure: The cells were harvested and lysed on the fourth day post-infection with 50 μl of lysing reagent. The luciferase activity was analyzed using a luciferase kit (Promega) and a luminometer (Ultra 386, Tecan) according to the manufacturer's instruction. The percent inhibition of luciferase activity was calculated.
# HIV-1 IIIB (B, X4) [5] = system: HIV-1 IIIB (B, X4)
# Procedure: The inhibitory activity of the bifunctional molecule on HIV-1 IIIB infection was determined by ELISA for p24 production (Jiang S et al. J Exp Med 174:1557-1563, 1991). Briefly, MT-2 cells were infected with HIV-1IIIB at 100 TCID50 (50% tissue culture infective dose) in RPMI 1640 medium containing 10% FBS in the presence or absence of an antigen specific antiserum or IgG antibody in serial 2-fold dilutions at 37° C. overnight. The culture supernatants were then removed and fresh media were added. On day 4 post-infection, the culture supernatants were collected and mixed with equal volumes of 5% TRITON™ X-100 for the detection in the p24 protein ELISA.
# 92TH009 (E/A, R5) = experiment: Primary HIV-1 isolate infection of PBMCs, p24 ELISA; assay type: cell-based
# Procedure: as §1
substance,measurement,setting,value
enfuvirtide,IC50,"RU570 (G, R5)",0.0441 µM
same,IC90,"RU570 (G, R5)",0.11 µM
same,IC50,"92US657 (B, R5)",0.0561 µM
same,IC90,"92US657 (B, R5)",0.224 µM
same,IC50,"94UG103 (A, X4R5)",0.00667 µM
same,IC90,"94UG103 (A, X4R5)",0.0294 µM
same,IC50,"93MW959 (C, R5)",0.0047 µM
same,IC90,"93MW959 (C, R5)",0.0188 µM
same,"virus inactivation activity, HIV-1 Bal","HIV-1 Bal (B, R5) [1]",no significant effects on virus
same,"virus inactivation activity, HIV-1 IIIB","HIV-1 IIIB (B, X4) [2]",no significant effects on virus
same,IC50,[3],0.0201 µM
same,IC90,[3],0.0417 µM
same,IC50,"HIV-1 Bal (B, R5) [4]",0.0433 µM
same,IC90,"HIV-1 Bal (B, R5) [4]",> 0.25 µM
same,IC50,"HIV-1 IIIB (B, X4) [5]",0.0173 µM
same,IC90,"HIV-1 IIIB (B, X4) [5]",0.117 µM
same,IC50,"92TH009 (E/A, R5); read-out: IC50, HIV-1 replication 92TH009 (E/A, R5)",0.00143 µM
same,IC90,"92TH009 (E/A, R5); read-out: IC90, HIV-1 replication 92TH009 (E/A, R5)",0.00799 µM
